Measured values reported in publication PMC3430621, “HPLC–MS/MS Analysis of a Traditional Chinese Medical Formulation of Bu-Yang-Huan-Wu-Tang and Its Pharmacokinetics after Oral Administration to Rats” (PLoS ONE, 2012).
Like-named read-outs stand apart in the source and are kept apart here.

Columns and labels:
[1] = Stability of the analytes in rat plasma samples (freeze-thaw, short-term, long-term, autosampler); type: in vitro ADME; conditions: n = 3; for Stability (%) Autosampler stability: autosampler 8°C 12 h; for Stability (%) Short-term stability: room temperature 6 h; for Stability (%) Freeze-thaw stability: three freeze-thaw cycles; for Stability (%) Long-term stability: −20°C 14 days
Procedure: Stability was also assessed using the low, medium and high concentrations of analytes. Freeze-thaw stability was assessed over three freeze-thaw cycles. Short-term stability was determined by placing the samples at room temperature for 6 h. Long-term stability was evaluated by analyzing samples kept at −20°C for 14 days. Autosampler stability was determined by maintaining the samples at the autosampler temperature (8°C) for 12 h. All stabilities were calculating as the ratio of average concentration and freshly prepared samples.

[2] = Pharmacokinetics in conscious freely moving rats after oral administration of BYHWT extract (HPLC-MS/MS of plasma); type: in vivo, Sprague-Dawley rats
Excerpt: The protocol listed below has been reviewed and approved by the Institutional Animal Care and Use Committee (IACUC; approval number 1010409) by the Institutional Animal Experimentation Committee of the National Yang-Ming University. Male pathogen-free Sprague-Dawley rats (250±50 g body weight) were obtained from the Laboratory Animal Center of National Yang Ming University. The animals had free access to food (Laboratory rodent diet 5P14, PMI Feeds, Richmond, IN, USA) and water was allowed at all times. All animal experiments followed the National Yang-Ming University guidelines and procedures for the care of laboratory animals. […] Experimental rats were initially anesthetized with pentobarbital (50 mg/kg, i.p.), and polyethylene tubing was implanted in the right jugular vein for blood sampling. The tube crossed the subcutaneous tissue and was fixed at its exit from the dorsal neck region. The patency tubing was maintained by filling with heparinized saline (20 units/mL). After surgery, the rats were placed in experimental cages and allowed to recuperate for one day. The rats were kept fasted for 12 h and water were available ad libitum before the BYHWT administration. […] In our study, the dose of BYHWT (10 g/kg) was appropriate for oral administration in rats. […] The condensed blood collection in the absorption phase is to figure out the maximum concentration and the time when it reaches the maximum concentration. The time points in the elimination phase are not close. This strategy is commonly used in the pharmacokinetic studies but the total blood consumption should not be over 20% of body blood. In these experimental rats, the total blood sampling volume is within 20% during 12 h. Plasma was separated by centrifuging the blood sample at 6000 rpm for 10 min at 4°C. […] The samples were vortexed and centrifuged at 16,100×g for 10 min. In our micro-analysis, less than 200 μL is needed. Actually, the collected blood volume is around 120-150 μL for each time point. After centrifugation, the plasma samples (50 μL) were vortex-mixed with 100 μL of acetonitrile. The supernatants were collected and filtered. Around 20 μL aliquot of the supernatants was transferred into the vial for analysis by HPLC-MS/MS system. The acetonitrile but not the real sample was used in the needle pre-wash standard procedure [19]. The LC-MS/MS system consisted of an Agilent 1100 series LC with automatic liquid chromatographic sampler, injector, bi-pump and degasser; and Applied Biosystems/MDS Sciex API 3000 tandem quadrupole mass spectrometry equipped with electrospray ionization (ESI) interface using the following parameters: nebulizer gas (NEB):10, curtain gas (CUR): 7, collisionally activated dissociation gas (CAD): 12, ionspray voltage (IS): 5000 V, turbo ionspray temperature (TEM): 450°C. Nitrogen was used in all cases. The mass spectrometer was operated in the positive ion detection mode. […] The following linear gradient program was applied to the analyte with the mobile phase consisting of methanol (0.1% formic acid, solvent A) and NH4OAc (0.1% formic acid, solvent B): 0-1 min: 30-70% A; 1-2 min 70-90%; 2-8 min: 90-90%; 8-9 min: 90-30%, 9-18 min: 30-30%, v/v. […] The flow rate was maintained at […]. Pharmacokinetic parameters including maximum plasma concentration (Cmax), time to reach the maximum concentrations (Tmax), half-life (t1/2), area under concentration-time curve (AUC) and oral clearance (CL) were estimated by a non-compartmental analysis using the pharmacokinetic program, WinNonlin Standard Edition Version 1.1 (Scientific Consulting, Apex, NC, USA). All results were expressed as average mean ± standard deviation (S.D.). ANOVA was used to evaluate differences, and a value of P<0.05 was taken as statistically significant.

[3] = male, Sprague-Dawley, po, rat plasma, BYHWT extract 10 g/kg p.o., n = 6, read-out: Cmax
[4] = male, Sprague-Dawley, po, rat plasma, BYHWT extract 10 g/kg p.o., n = 6, read-out: Tmax (converted)
[5] = male, Sprague-Dawley, po, rat plasma, BYHWT extract 10 g/kg p.o., n = 6, read-out: t1/2
[6] = rat plasma, BYHWT extract 10 g/kg p.o.
[7] = male, Sprague-Dawley, rat, in vivo, po, 10 g/kg

Row | Stability (%) Autosampler stability ([1]; concentration 10 (µg/mL)) | Stability (%) Short-term stability ([1]; concentration 10 (µg/mL)) | Stability (%) Freeze-thaw stability ([1]; concentration 10 (µg/mL)) | Stability (%) Long-term stability ([1]; concentration 10 (µg/mL)) | Stability (%) Autosampler stability ([1]; concentration 100 (µg/mL)) | Stability (%) Short-term stability ([1]; concentration 100 (µg/mL)) | Stability (%) Freeze-thaw stability ([1]; concentration 100 (µg/mL)) | Stability (%) Long-term stability ([1]; concentration 100 (µg/mL)) | Stability (%) Autosampler stability ([1]; concentration 1000 (µg/mL)) | Stability (%) Short-term stability ([1]; concentration 1000 (µg/mL)) | Stability (%) Freeze-thaw stability ([1]; concentration 1000 (µg/mL)) | Stability (%) Long-term stability ([1]; concentration 1000 (µg/mL)) | Cmax [2, 3] | Tmax [2, 4] | half-life [2, 5] | absorption phase in the plasma concentration-time curve [2, 6] | Stability (%) Autosampler stability ([1]; concentration 1 (µg/mL)) | Stability (%) Short-term stability ([1]; concentration 1 (µg/mL)) | Stability (%) Freeze-thaw stability ([1]; concentration 1 (µg/mL)) | Stability (%) Long-term stability ([1]; concentration 1 (µg/mL)) | Structure (SMILES) | further results
1 | −13±4.1% | −3.4±12% | −4.9±3.8% | −13±5.5% | −4.6±11% | 1.1±10% | 5.8±10% | −12±7.5% | 0.8±12% | 1.5±10.4% | −3.5±6.0% | 1.0±6.4% | 98 ± 17 ng/mL | 0.633 h | 2.92 ± 0.217 h | single and plateau absorption phase | – | – | – | – | COc1ccc(-c2coc3cc(O)ccc3c2=O)cc1 [Formononetin, formononetin] | –
2 | −3.3±7.3% | 7.7±10% | 7.3±4.6% | 21±15% | −1.6±8.2% | −1.8±9.4% | 2.1±1.8% | 10±7.3% | 8.5±5.1% | 11±8.4% | 9.5±0.2% | 27±9.9% | 97 ± 33 ng/mL | 0.583 h | 1.55 ± 0.533 h | single and plateau absorption phase | – | – | – | – | C[C@@]12C[C@@]3(O)O[C@@H](O1)[C@]1(COC(=O)c4ccccc4)[C@H]3C[C@@]12O[C@@H]1O[C@H](CO)[C@@H](O)[C@H](O)[C@H]1O [Paeoniflorin, paeoniflorin] | –
3 | −3.5±11% | 1.4±11% | 9.6±4.7% | 2.5±5.7% | −2.2±3.5% | 14±12% | 8.6±3.8% | 17±5.2% | 7.1±4.9% | 13±7.3% | 2.9±4.5% | 21±12% | 1230 ± 171 ng/mL | 0.667 h | 1.25 ± 0.183 h | single and plateau absorption phase | – | – | – | – | COc1ccc(-c2coc3cc(O)ccc3c2=O)cc1O [Calycosin, calycosin] | AUC ([2]; rat plasma, BYHWT extract 10 g/kg p.o., n = 6): 5130 ± 1220 ng·h/mL
4 | −7.0±1.4% | −12±4.6% | −2.5±7.3% | −6.2±2.9% | 8.1±3.8% | 6.7±2.1% | 4.2±1.3% | 3.2±3.9% | – | – | – | – | 19 ± 4.5 ng/mL | 0.583 h | 2.23 ± 0.16 h | single and plateau absorption phase | 4.7±7.7% | 12±6.3% | 3.9±6.4% | −7.2±10% | COc1ccc(-c2coc3cc(O[C@@H]4O[C@H](CO)[C@@H](O)[C@H](O)[C@H]4O)ccc3c2=O)cc1 [Ononin, ononin] | –
5 | – | – | – | – | – | – | – | – | – | – | – | – | – | – | – | – | – | – | – | – | O=c1[nH]cnc2nc[nH]c12 [hypoxanthine] | observed in rat plasma after oral administration of BYHWT ([2]; preliminary experiments): could not be observed
6 | 13±7.2% | 11±10% | 2.7±2.2% | 5.0±14% | −1.6±10% | 12±7.5% | 6.5±1.4% | 23±12% | – | – | – | – | 7.8 ± 0.2 ng/mL | 0.75 h | 4.45 ± 0.02 h | double-peak absorption phase | 2.0±10% | 14±11% | 8.7±5.9% | 6.7±10% | CCC/C=C1\OC(=O)C2=C1CCC=C2 [Ligustilide, ligustilide] | –
7 | −0.3±11% | −1.3±1.9% | −2.3±0.8% | −0.8±16% | −5.4±13% | −6.8±5.7% | 0.4±1.2% | 1.7±21% | – | – | – | – | – | – | – | – | 13±10% | 2.4±12% | 4.4±3.6% | 8.7±10% | CC(=O)O[C@H]1[C@H](O[C@H]2CC[C@]34C[C@]35CC[C@]3(C)[C@@H]([C@@]6(C)CC[C@@H](C(C)(C)O)O6)[C@@H](O)C[C@@]3(C)[C@@H]5C[C@H](O[C@@H]3O[C@H](CO)[C@@H](O)[C@H](O)[C@H]3O)[C@H]4C2(C)C)OC[C@@H](O)[C@@H]1O [Astragaloside II, astragaloside II] | Cl ([2]; male, Sprague-Dawley, rat, in vivo, po): 129 ± 15 mL/min/kg; Cmax [2, 7]: 30 ± 4.9 ng/mL; Tmax [2, 7]: 0.617 h; half-life [2, 7]: 3.53 ± 0.233 h; AUC ([2]; rat, in vivo, po, 10 g/kg): 190 ± 38.3 ng·h/mL

Row | Structure (SMILES) | Stability (%) Autosampler stability ([1]; concentration 10 (µg/mL)) | Stability (%) Short-term stability ([1]; concentration 10 (µg/mL)) | Stability (%) Freeze-thaw stability ([1]; concentration 10 (µg/mL)) | Stability (%) Long-term stability ([1]; concentration 10 (µg/mL)) | Stability (%) Autosampler stability ([1]; concentration 100 (µg/mL)) | Stability (%) Short-term stability ([1]; concentration 100 (µg/mL)) | Stability (%) Freeze-thaw stability ([1]; concentration 100 (µg/mL)) | Stability (%) Long-term stability ([1]; concentration 100 (µg/mL)) | Stability (%) Autosampler stability ([1]; concentration 1000 (µg/mL)) | Stability (%) Short-term stability ([1]; concentration 1000 (µg/mL)) | Stability (%) Freeze-thaw stability ([1]; concentration 1000 (µg/mL)) | Stability (%) Long-term stability ([1]; concentration 1000 (µg/mL)) | Cmax [2, 3] | Tmax [2, 4] | half-life [2, 5] | absorption phase in the plasma concentration-time curve [2, 6] | Stability (%) Autosampler stability ([1]; concentration 1 (µg/mL)) | Stability (%) Short-term stability ([1]; concentration 1 (µg/mL)) | Stability (%) Freeze-thaw stability ([1]; concentration 1 (µg/mL)) | Stability (%) Long-term stability ([1]; concentration 1 (µg/mL)) | further results
8 | CC(C)(O)[C@@H]1CC[C@](C)([C@H]2[C@@H](O)C[C@@]3(C)[C@@H]4C[C@H](O[C@@H]5O[C@H](CO)[C@@H](O)[C@H](O)[C@H]5O)[C@H]5C(C)(C)[C@@H](O[C@@H]6OC[C@@H](O)[C@H](O)[C@H]6O)CC[C@@]56C[C@@]46CC[C@]23C)O1 [Astragaloside IV, astragaloside IV] | 3.3% | 4.7±6.2% | −4.1±3.4% | −6.3±8.8% | −8.6±12% | 1.6±9.1% | 6.1±0.4% | 2.1±13.5% | – | – | – | – | – | – | – | double-peak absorption phase | 3.8±9.8% | 12±15% | −3.2±5.0% | −17±5.3% | Cmax ([2]; male, Sprague-Dawley, in vivo, po, rat plasma, BYHWT extract 10 g/kg p.o., n = 6, read-out: Cmax): 100 ± 16 ng/mL; Tmax ([2]; male, Sprague-Dawley, in vivo, po, rat plasma, BYHWT extract 10 g/kg p.o., n = 6, read-out: Tmax (converted)): 0.583 h; half-life ([2]; male, Sprague-Dawley, in vivo, po, rat plasma, BYHWT extract 10 g/kg p.o., n = 6, read-out: t1/2): 2.83 ± 0.138 h
